For this data set, the target named is Cytochrome P450 1A2 (Homo sapiens) (UniProt P05177). In words: CYP1A2 enzyme inhibition, late-stage follow-up, biochemical (AID 652076). The following applies: Human CYP inhibition panel, LC-MS/MS marker substrate metabolism.

Active and inactive are the calls of the source. The rule behind the calls is not given here.

What is called inhibition is the change of the read-out against control, counted positive when it falls.

Cytochrome P450 1A2 (Homo sapiens), sequence (P05177 whole entry, looked up): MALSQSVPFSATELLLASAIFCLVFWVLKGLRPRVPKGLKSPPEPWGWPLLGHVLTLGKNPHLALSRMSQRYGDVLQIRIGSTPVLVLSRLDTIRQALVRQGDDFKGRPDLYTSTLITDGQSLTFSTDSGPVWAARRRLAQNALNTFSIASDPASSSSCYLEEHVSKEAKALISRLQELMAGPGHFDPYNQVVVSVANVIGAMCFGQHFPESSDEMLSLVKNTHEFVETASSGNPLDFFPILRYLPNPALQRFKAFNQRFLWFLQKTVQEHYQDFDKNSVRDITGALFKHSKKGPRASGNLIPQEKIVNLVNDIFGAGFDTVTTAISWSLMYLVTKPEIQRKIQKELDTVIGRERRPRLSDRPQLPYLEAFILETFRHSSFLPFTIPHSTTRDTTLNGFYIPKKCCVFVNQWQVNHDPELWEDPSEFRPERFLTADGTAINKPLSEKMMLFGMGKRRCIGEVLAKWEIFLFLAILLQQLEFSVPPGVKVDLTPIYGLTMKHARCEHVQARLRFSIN

With `COC(=O)c1cc(Br)cnc1N1CCC(NC2CCCCC2)C(O)C1` (configuration not stated), the outcome was active. For the same compound, the inhibition (CYP1A2, at 10 µM, stronger effect = higher value) is -9%.
